Reference: US10172581B2, “Methods of assessing tumor growth” (Dana-Farber Cancer Institute, Inc., priority 2013, dated 2019)
Read-outs that look alike come from different tables or passages of the source.

What was measured:
[1] = system: stage IV lung adenocarcinoma; assay: CT follow-up of a lung adenocarcinoma patient on crizotinib (FIG. 4); format: in vivo, human; conditions: person, 8 weeks
[2] = system: NSCLC with sensitizing EGFR mutations (dominant measurable lung lesion); conditions: for tumor volume: same patient
Protocol: Patients provided informed consent and their records were retrospectively reviewed with IRB approval.
Baseline and follow-up CT scans were performed to determine response to EGFR-TKI using the clinical chest CT protocol [31]. Follow-up CT scans were performed every 8 weeks for 33 patients enrolled in prospective trials of EGFR-TKI, and at the discretion of the treating providers for 25 patients treated off protocol [5,25,45-47]. […] The nadir (the smallest tumor volume recorded from baseline to TKI termination/last follow-up) was determined for each patient.
1, 2012, were analyzed. Demographics and disease characteristics were summarized with descriptive statistics. A linear mixed effects model, fitting time as a random effect [48], was fitted to the repeated measures of volume data to estimate the effect of time and other prognostic factors on tumor growth. The tumor volume (mm^3) was transformed to the natural logarithm scale, and the logarithm of tumor volume (logeV) was used. The first model was built adjusting only for time in months from baseline. Since the baseline volume (logeV0; the tumor volume measured on the baseline scan performed before the initiation of TKI therapy) may influence the tumor volume and its growth rate, the second model was adjusted for time and logeV0.

With `C[C@@H](Oc1cc(-c2cnn(C3CCNCC3)c2)cnc1N)c1c(Cl)ccc(F)c1Cl` [crizotinib] the “change of lung lesion on CT” value [1] was “marked decrease of the lesion and nodular pericardial thickening”.

With `C#Cc1cccc(Nc2ncnc3cc(OCCOC)c(OCCOC)cc23)c1` [erlotinib] the “tumor volume at nadir” value ([2]; person, stage IV lung adenocarcinoma, 4 month of therapy, baseline 25,016 mm^3) was 5,288 mm^3, the tumor volume ([2]; 5 month, regrowth after nadir) was 7,490 mm^3 and the tumor volume ([2]; 7 month) was 12,922 mm^3.
